Laboratory results as given in PubChem BioAssay AID248 (DTP/NCI, 2004).
Inconclusive results and toxic doses are left out. Cut-off read from the data, not from the text of the source: active = T/C of 150% or more; inactive = T/C below 125%.

System: L1210 leukemia ip in BDF1 mice, survival T/C
Test: NCI In Vivo Anticancer Drug Screen. Data for tumor model L1210 Leukemia (intraperitoneal) in B6D2F1 (BDF1) mice
Details: endpoint: mean survival time, higher = longer survival
Procedure, shortened: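 Transplanted-tumor mice were given test agent; controls received vehicle only. Survival readings from the two groups were divided (treated over control).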

[1] = dose: 100.0 mg/kg/injection, schedule: Q01DX009 (ip), vehicle: Klucel (hydroxypropylcellulose) (HPC)
[2] = dose: 200.0 mg/kg/injection, schedule: Q01DX009 (ip), vehicle: Klucel (hydroxypropylcellulose) (HPC)
[3] = dose: 400.0 mg/kg/injection, schedule: Q01DX009 (ip), vehicle: Klucel (hydroxypropylcellulose) (HPC)
[4] = dose: 50.0 mg/kg/injection, schedule: Q01DX001 (ip), vehicle: carboxymethylcellulose (CMC)
[5] = dose: 100.0 mg/kg/injection, schedule: Q01DX001 (ip), vehicle: carboxymethylcellulose (CMC)
[6] = dose: 200.0 mg/kg/injection, schedule: Q01DX001 (ip), vehicle: carboxymethylcellulose (CMC)
[7] = dose: 400.0 mg/kg/injection, schedule: Q01DX001 (ip), vehicle: carboxymethylcellulose (CMC)
[8] = dose: 100.0 mg/kg/injection, schedule: Q01DX009 (ip), vehicle: saline with Tween-80
[9] = dose: 200.0 mg/kg/injection, schedule: Q01DX009 (ip), vehicle: saline with Tween-80
[10] = dose: 400.0 mg/kg/injection, schedule: Q01DX009 (ip), vehicle: saline with Tween-80

Measured: T/C

CS(=O)(=O)OCCN(CCOS(C)(=O)=O)c1ccc(C=Nc2cccc(Cl)c2)cc1
inactive: dose: 1.25 mg/kg/injection, schedule: Q04DX003 (ip), vehicle: Klucel (hydroxypropylcellulose) (HPC) 107 % of control | dose: 5.0 mg/kg/injection, schedule: Q04DX003 (ip), vehicle: Klucel (hydroxypropylcellulose) (HPC) 107 % of control

Cc1ccc(S(=O)(=O)Nc2cc(Cl)c(I)c(Cl)c2)cc1
inactive: [1] 96 % of control | [2] 102 % of control | [3] 100 % of control

O=C(Nc1ccc(F)cc1)Nc1ccccc1C(F)(F)F
inactive: [1] 95 % of control | [2] 97 % of control | [3] 88 % of control

CN(C)Cc1c(C(O)(c2ccccc2)c2ccccc2)cc2ccccc2c1Cl
inactive: [4] 94 % of control | [5] 94 % of control | [6] 102 % of control | [7] 96 % of control

CC1(C)C(=O)N(Cl)C(=O)N1Cl
inactive: dose: 3.12 mg/kg/injection, schedule: Q01DX009 (ip), vehicle: Klucel (hydroxypropylcellulose) (HPC) 90 % of control | dose: 3.13 mg/kg/injection, schedule: Q01DX001 (ip), vehicle: saline sonified 90 % of control | dose: 3.13 mg/kg/injection, schedule: Q01DX009 (ip), vehicle: saline 99 % of control | dose: 6.25 mg/kg/injection, schedule: Q01DX001 (ip), vehicle: saline sonified 97 % of control | dose: 6.25 mg/kg/injection, schedule: Q01DX009 (ip), vehicle: Klucel (hydroxypropylcellulose) (HPC) 90 % of control | dose: 6.25 mg/kg/injection, schedule: Q01DX009 (ip), vehicle: saline 95 % of control | dose: 12.5 mg/kg/injection, schedule: Q01DX001 (ip), vehicle: saline sonified 95 % of control | dose: 12.5 mg/kg/injection, schedule: Q01DX009 (ip), vehicle: saline 99 % of control | dose: 12.5 mg/kg/injection, schedule: Q04DX002 (ip), vehicle: Klucel (hydroxypropylcellulose) (HPC) 97 % of control | dose: 25.0 mg/kg/injection, schedule: Q01DX009 (ip), vehicle: Klucel (hydroxypropylcellulose) (HPC) 91 % of control | dose: 25.0 mg/kg/injection, schedule: Q04DX002 (ip), vehicle: Klucel (hydroxypropylcellulose) (HPC) 94 % of control

c1ccc(-c2c3ccccc3c(-c3ccccc3)c3c2ccc2ccccc23)cc1
inactive: dose: 50.0 mg/kg/injection, schedule: Q01DX009 (ip), vehicle: Klucel (hydroxypropylcellulose) (HPC) 91 % of control | [2] 91 % of control

CCCCCCCCCCCCCCCCSCCOC(=O)C1C2CCC(O2)C1C(=O)O (stereo not given)
inactive: dose: 12.5 mg/kg/injection, schedule: Q01DX001 (ip), vehicle: Klucel (hydroxypropylcellulose) (HPC) 107 % of control | dose: 25.0 mg/kg/injection, schedule: Q01DX001 (ip), vehicle: Klucel (hydroxypropylcellulose) (HPC) 101 % of control | dose: 50.0 mg/kg/injection, schedule: Q01DX001 (ip), vehicle: Klucel (hydroxypropylcellulose) (HPC) 98 % of control

N=C(N)N/N=C(\C=N\NC(=N)N)c1ccc(Oc2ccc(C(/C=N/NC(=N)N)=N\NC(=N)N)cc2)cc1
inactive: dose: 3.8 mg/kg/injection, schedule: Q01DX Z (ip), vehicle: saline 98 % of control | dose: 7.5 mg/kg/injection, schedule: Q01DX Z (ip), vehicle: saline 114 % of control | dose: 15.0 mg/kg/injection, schedule: Q01DX Z (ip), vehicle: saline 118 % of control

OCCNCc1ccc(O)cc1
inactive: dose: 100.0 mg/kg/injection, schedule: Q01DX009 (ip), vehicle: water 100 % of control | dose: 100.0 mg/kg/injection, schedule: Q04DX003 (ip), vehicle: water 103 % of control | dose: 200.0 mg/kg/injection, schedule: Q01DX009 (ip), vehicle: water 105 % of control | dose: 200.0 mg/kg/injection, schedule: Q04DX003 (ip), vehicle: water 103 % of control | dose: 400.0 mg/kg/injection, schedule: Q01DX009 (ip), vehicle: water 102 % of control | dose: 400.0 mg/kg/injection, schedule: Q04DX003 (ip), vehicle: water 103 % of control

CCC1=C(C)CN(C)c2ccccc21
inactive: dose: 100.0 mg/kg/injection, schedule: Q01DX001 (ip), vehicle: saline 100 % of control | dose: 200.0 mg/kg/injection, schedule: Q01DX001 (ip), vehicle: saline 100 % of control | dose: 400.0 mg/kg/injection, schedule: Q01DX001 (ip), vehicle: saline 94 % of control

Nc1ncnc2nc(-c3ccc(Cl)c(Cl)c3)[nH]c12
inactive: dose: 37.5 mg/kg/injection, schedule: Q01DX001 (ip), vehicle: saline with Tween-80 93 % of control | dose: 75.0 mg/kg/injection, schedule: Q01DX001 (ip), vehicle: saline with Tween-80 87 % of control | dose: 150.0 mg/kg/injection, schedule: Q01DX001 (ip), vehicle: saline with Tween-80 87 % of control

CCCCCCCCOc1ccc(/C=N\N=C\c2ccc(OCCCCCCCC)cc2)cc1
inactive: [8] 105 % of control | [9] 91 % of control | [10] 92 % of control

CCSC(=O)N1C=Cc2ccccc2C1C#N (stereo not given)
inactive: dose: 100.0 mg/kg/injection, schedule: Q01DX001 (ip), vehicle: Klucel (hydroxypropylcellulose) (HPC) 95 % of control | [1] 95 % of control | dose: 200.0 mg/kg/injection, schedule: Q01DX001 (ip), vehicle: Klucel (hydroxypropylcellulose) (HPC) 90 % of control | [2] 95 % of control | dose: 400.0 mg/kg/injection, schedule: Q01DX001 (ip), vehicle: Klucel (hydroxypropylcellulose) (HPC) 101 % of control | [3] 108 % of control

COc1ccc(NC(=O)Oc2ccc(Br)cc2Br)c(Cl)c1
inactive: dose: 50.0 mg/kg/injection, schedule: Q01DX009 (ip), vehicle: saline + alcohol 87 % of control | dose: 100.0 mg/kg/injection, schedule: Q01DX009 (ip), vehicle: saline + alcohol 87 % of control | dose: 200.0 mg/kg/injection, schedule: Q01DX009 (ip), vehicle: saline + alcohol 97 % of control

COc1ccc(C=C2C3C=CC2C2C(=O)OC(=O)C32)cc1 (stereo not given)
inactive: [1] 101 % of control | dose: 100.0 mg/kg/injection, schedule: Q04DX003 (ip), vehicle: Klucel (hydroxypropylcellulose) (HPC) 99 % of control | [2] 97 % of control | dose: 200.0 mg/kg/injection, schedule: Q04DX003 (ip), vehicle: Klucel (hydroxypropylcellulose) (HPC) 99 % of control | dose: 400.0 mg/kg/injection, schedule: Q04DX003 (ip), vehicle: Klucel (hydroxypropylcellulose) (HPC) 89 % of control

O=C(O)c1c(Cl)c(Cl)c(Cl)c(Cl)c1Cl
inactive: [8] 103 % of control | [9] 106 % of control | [10] 112 % of control

O=c1c2ccccc2nc(-c2ccccc2)n1/N=C/c1ccccc1O
inactive: [1] 103 % of control | [2] 103 % of control | [3] 100 % of control

OC1c2ccccc2C(O)C2C3C=CC(CC3)C12 (stereo not given)
inactive: [4] 93 % of control | [5] 98 % of control | [6] 98 % of control | [7] 98 % of control

CC(C)(CCCCC(C)(C)NC(=O)Nc1ccc(Cl)c(Cl)c1)NC(=O)Nc1ccc(Cl)c(Cl)c1
inactive: [5] 92 % of control | [6] 87 % of control

O/N=C/C=N/O.O/N=C/C=N/O.[Pd]
inactive: dose: 1.56 mg/kg/injection, schedule: Q01DX009 (ip), vehicle: saline with Tween-80 110 % of control | dose: 3.13 mg/kg/injection, schedule: Q01DX009 (ip), vehicle: saline with Tween-80 97 % of control | dose: 6.25 mg/kg/injection, schedule: Q01DX009 (ip), vehicle: saline with Tween-80 112 % of control
